Assay results reported in publication PMC10503797, “Allosteric modulator potentiates β2AR agonist–promoted bronchoprotection in asthma models” (The Journal of Clinical Investigation, 2023).
Several values for one entry are separate records, joined by “and”; a condition that tells them apart may be missing. Identical values can stand only once. Like-named read-outs stand apart in the source and are kept apart here.

Assays:
guinea pig lung slices = assay: Methacholine-induced airway constriction in guinea pig lung slices; assay type: cell-based; conditions: for EC50: read-out: MCh EC50
Protocol: All curve fits were generated using the software program GraphPad Prism. Data are represented as mean ± SEM obtained from 6 guinea pigs.
Precision-cut lung slices were prepared as described previously ([61], [62]). A 3% solution of low melting-point agarose (Gerbu Biotechnik GmbH) in ultrapure water was prepared by heating it a microwave until fully dissolved. […] After filling, the lungs were covered with ice for 30 minutes to solidify the agarose for slicing. […] Lung slices were cut at a thickness of 500 μm and washed several times with slicing buffer to remove debris and washout the isoproterenol. Slices were incubated overnight in a 60 mm dish in sterile incubation buffer: MEM composed of lung slice buffer supplemented with 0.5 mM sodium pyruvate, 1 mM glutamine (Gibco), MEM-amino acids mixture (1:50), MEM-vitamins mixture (1:100; Gibco), and penicillin-streptomycin (1:100; Gibco), pH = 7.2, at 37°C in a CO2- and humidity-controlled atmosphere.
After washing the slices in medium, individual guinea pig lung slices were mechanically maintained with a Teflon ring with an inner diameter of 7 mm and covered with 1 mL of incubation buffer. […] Image acquisition software (NIS-Elements, Nikon) was used to quantify airway luminal area. Images of the airways were acquired every 2 seconds during the whole course of the experiment, starting 2 minutes before the addition of any agent to allow for baseline measurements of the airway caliber. For each methacholine or ovalbumin concentration, the maximal airway constriction was expressed as percentage of the initial (baseline) airway luminal area and plotted against that concentration.

human lung slices = assay: Methacholine-induced airway constriction in human lung slices; assay type: cell-based; parameters: key to MCh-induced airway constriction response (Figure 7): % of initial airway luminal area; conditions: for MCh-induced airway constriction response (Figure 7): 1 µM Fenoterol + 25 µM Cmpd-6, donor 1-4
Text: All curve fits were generated using the software program GraphPad Prism. Data are represented as mean ± SEM of 4 human donors (see Table 3 for statistical analyses).
Precision-cut human lung slices were purchased from AnaBios and stored in a liquid nitrogen tank. Lung tissue was obtained postmortem and consent for research was obtained by AnaBios for all donors. Characteristics of the donors of the lung tissue are shown in Supplemental Table 2. Slices were rapidly thawed following instructions from AnaBios.
After washing, individual human lung slices were mechanically maintained with a Teflon ring with an inner diameter of 7 mm and covered with 1 mL of incubation buffer. […] Image acquisition software (NIS-Elements, Nikon) was used to quantify airway luminal area. […] Airway constriction in response to each methacholine concentration was expressed as percentage of the initial airway luminal area.

guinea pig β2AR = guinea pig β2AR (Cavia porcellus, UniProt Q8K4Z4); assay: 125I-CYP radioligand competition binding, guinea pig β2AR; conditions: for 125I-CYP binding, Alb competition curve (Figure 4E): Cmpd-6 [25 uM]
Chain of guinea pig β2AR (Q8K4Z4 whole entry): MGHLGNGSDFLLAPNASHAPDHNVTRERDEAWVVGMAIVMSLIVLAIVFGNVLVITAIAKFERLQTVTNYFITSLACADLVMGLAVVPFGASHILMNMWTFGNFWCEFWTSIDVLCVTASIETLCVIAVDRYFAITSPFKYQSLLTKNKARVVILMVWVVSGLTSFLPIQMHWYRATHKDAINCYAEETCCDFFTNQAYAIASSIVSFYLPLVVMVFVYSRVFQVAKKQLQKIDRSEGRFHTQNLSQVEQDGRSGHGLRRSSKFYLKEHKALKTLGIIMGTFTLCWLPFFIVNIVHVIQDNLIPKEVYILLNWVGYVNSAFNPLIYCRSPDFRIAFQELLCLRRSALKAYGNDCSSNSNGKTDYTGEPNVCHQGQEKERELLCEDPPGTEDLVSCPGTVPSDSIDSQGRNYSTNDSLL

COc1ccc(Sc2ccc(S(=O)(=O)N(C)C(C)C)cc2C(=O)N[C@H](CC(N)=O)Cc2ccc(C(C)(C)C)cc2)cc1 [Cmpd-6]
MCh Emax (guinea pig lung slices; 1 μM Fenoterol + 25 μM Cmpd-6): 112.3 ± 9.5% | EC50 (guinea pig lung slices; 1 μM Fenoterol + 25 μM Cmpd-6): 590 ± 90 nM | MCh Emax (guinea pig lung slices; 10 μM Fenoterol + 25 μM Cmpd-6): 100.9 ± 3.2% | EC50 (guinea pig lung slices; 10 μM Fenoterol + 25 μM Cmpd-6): 980 ± 120 nM | Augmentation of airway smooth muscle responsiveness to fenoterol (guinea pig lung slices; 25 μM Cmpd-6): 10 fold | MCh Emax (guinea pig lung slices; 25 μM Cmpd-6 alone): 100.0 ± 2.0% | EC50 (guinea pig lung slices; 25 μM Cmpd-6 alone): 280 ± 50 nM | MCh Emax (human lung slices; 1 μM Fenoterol + 25 μM Cmpd-6): 26.5 ± 4.4^A % | MCh pD2 (human lung slices; 1 μM Fenoterol + 25 μM Cmpd-6): 5.52 ± 0.24^B –log M | MCh-induced airway constriction response (Figure 7) (human lung slices; -Log [MCh] 3.5): 81.9 and 70.9 and 77.9 and 77.7 | MCh-induced airway constriction response (Figure 7) (human lung slices; -Log [MCh] 4): 85.4 and 70.2 and 85.0 and 81 | MCh-induced airway constriction response (Figure 7) (human lung slices; -Log [MCh] 4.5): 87.4 and 88.5 and 81.1 and 82.0 | MCh-induced airway constriction response (Figure 7) (human lung slices; -Log [MCh] 5): 88.4 and 90.1 and 84.2 and 85.0 | MCh-induced airway constriction response (Figure 7) (human lung slices; -Log [MCh] 5.5): 89.6 and 91.5 and 87.5 and 90.7 | MCh-induced airway constriction response (Figure 7) (human lung slices; -Log [MCh] 6): 90.7 and 94.3 and 90.0 and 93.1 | MCh-induced airway constriction response (Figure 7) (human lung slices; -Log [MCh] 6.5): 93.1 and 102.4 and 95.5 and 94.0 | MCh-induced airway constriction response (Figure 7) (human lung slices; -Log [MCh] 7): 93.8 and 102.2 and 98.0 and 97.4 | MCh-induced airway constriction response (Figure 7) (human lung slices; -Log [MCh] 7.5): 95.1 and 104.8 and 98.8 and 98.9 | MCh-induced airway constriction response (Figure 7) (human lung slices; -Log [MCh] 8): 99.2 and 103.1 and 100.8 and 101.6 | MCh-induced airway constriction response (Figure 7) (human lung slices; -Log [MCh] 8.5): 96.5 and 109.1 and 101.7 and 103.0 | MCh-induced airway constriction response (Figure 7) (human lung slices; -Log [MCh] 9): 95.6 and 107.7 and 98.0 and 98.3 | Enhancement of the β2-agonist responsiveness (human lung slices; 25 μM Cmpd-6 + 1 μM fenoterol vs 10 μM fenoterol): 10 fold | 125I-CYP binding, ISO competition curve (Figure 4B) (guinea pig β2AR; Cmpd-6 [1 uM], Log [ISO] (M) -4.49485): 1.389 and 1.151 and 1.419 and 1.486 and 1.375 | 125I-CYP binding, ISO competition curve (Figure 4B) (guinea pig β2AR; Cmpd-6 [1 uM], Log [ISO] (M) -5.69897): 11.9867 and 9.239 and 16.2618 and 13.198 and 14.4523 | 125I-CYP binding, ISO competition curve (Figure 4B) (guinea pig β2AR; Cmpd-6 [1 uM], Log [ISO] (M) -6.90309): 60.3981 and 44.4601 and 52.8751 and 61.5704 and 63.6634 | 125I-CYP binding, ISO competition curve (Figure 4B) (guinea pig β2AR; Cmpd-6 [1 uM], Log [ISO] (M) -7.50515): 85.4929 and 72.4739 and 91.4188 and 87.166 and 89.8825 | 125I-CYP binding, ISO competition curve (Figure 4B) (guinea pig β2AR; Cmpd-6 [1 uM], Log [ISO] (M) -8.70927): 98.0858 and 100.299 and 96.4593 and 97.8108 and 99.3392 | 125I-CYP binding, ISO competition curve (Figure 4B) (guinea pig β2AR; Cmpd-6 [1 uM], Log [ISO] (M) -9.31133): 102.219 and 97.3579 and 98.2032 and 100.895 and 101.354 | 125I-CYP binding, ISO competition curve (Figure 4B) (guinea pig β2AR; Cmpd-6 [1 uM], Log [ISO] (M) -9.91339): 101.18 and 98.3743 and 98.3138 and 101.016 and 101.111 | 125I-CYP binding, ISO competition curve (Figure 4B) (guinea pig β2AR; Cmpd-6 [1 uM], Log [ISO] (M) -11 (DMSO)): 99.0003 and 102.579 and 98.6421 and 100.222 and 97.6049 | 125I-CYP binding, ISO competition curve (Figure 4B) (guinea pig β2AR; Cmpd-6 [5 uM], Log [ISO] (M) -7.50515): 44.1147 and 80.7404 and 64.2013 and 72.7308 and 72.5102 | 125I-CYP binding, ISO competition curve (Figure 4B) (guinea pig β2AR; Cmpd-6 [5 uM], Log [ISO] (M) -8.70927): 91.2908 and 98.8095 and 98.5241 and 100.522 and 98.3672 | 125I-CYP binding, ISO competition curve (Figure 4B) (guinea pig β2AR; Cmpd-6 [5 uM], Log [ISO] (M) -9.31133): 97.2169 and 98.4924 and 100.303 and 100.814 and 103.36 | 125I-CYP binding, ISO competition curve (Figure 4B) (guinea pig β2AR; Cmpd-6 [5 uM], Log [ISO] (M) -9.91339): 98.5199 and 97.6422 and 100.698 and 101.104 and 99.2184 | 125I-CYP binding, ISO competition curve (Figure 4B) (guinea pig β2AR; Cmpd-6 [5 uM], Log [ISO] (M) -11 (DMSO)): 103.509 and 97.6444 and 99.5117 and 98.3736 and 96.5817 | 125I-CYP binding, Alb competition curve (Figure 4E) (guinea pig β2AR; Log [Alb] (M) -4.49485): 2.733 and 2.385 and 4.038 and 2.554 | 125I-CYP binding, Alb competition curve (Figure 4E) (guinea pig β2AR; Log [Alb] (M) -5.09691): 4.618 and 4.73 and 8.896 and 4.926 | 125I-CYP binding, Alb competition curve (Figure 4E) (guinea pig β2AR; Log [Alb] (M) -6.30103): 28.5337 and 34.114 and 50.4761 and 33.3615 | 125I-CYP binding, Alb competition curve (Figure 4E) (guinea pig β2AR; Log [Alb] (M) -6.90309): 59.5755 and 62.9432 and 76.3108 and 62.8869 | 125I-CYP binding, Alb competition curve (Figure 4E) (guinea pig β2AR; Log [Alb] (M) -7.50515): 81.8149 and 87.2785 and 93.3109 and 87.5413 | 125I-CYP binding, Alb competition curve (Figure 4E) (guinea pig β2AR; Log [Alb] (M) -8.10721): 96.1096 and 95.2866 and 96.5894 and 97.0774
